# In patent publication US9169252B2 (BRISTOL-MYERS SQUIBB COMPANY, priority 2014, dated 2015):
# Read-outs that look alike come from different tables or passages of the source.
# How the values were obtained:
# IRAK4 = IRAK4 (Homo sapiens (Human), UniProt Q9NWZ3); experiment: IRAK4 Inhibition Assay; assay type: biochemical; conditions: ATP 500 μM, read-out: IRAK4 IC50
# Method in brief: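 IRAK4 combined with fluorescent substrate and compounds, reacted 60 min at room temperature, stopped with 35 mM EDTA. Substrate and phosphorylated product separated electrophoretically on a Caliper LabChip 3000 mobility-shift reader.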
# [1] = system: TLR2 induced IL-6 in peripheral blood mononuclear cells (PBMCs); experiment: PBMC TLR2 Induced IL-6 Assay; assay type: cell-based, human; conditions: IL-6 by ELISA; for EC50: read-out: Cell EC50; for IC50: read-out: Cell IC50
# Method in brief: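 Lipoteichoic acid at 10 µg/ml served as TLR2 stimulus for 5 hours, following a 30-minute compound pretreatment at 37° C. Cells were Ficoll-isolated human PBMCs, 250000 cells/well, cultured in RPMI plus 10% heat-inactivated FCS.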
# [2] = Homo sapiens, PBMC, PBMC TLR2 Induced IL-6 Assay, lipoteichoic acid stimulation
# [3] = Homo sapiens, PBMC, human PBMCs, lipoteichoic acid stimulated
# [4] = PBMC TLR2 Induced IL-6 Assay, lipoteichoic acid stimulation
# IRAK4, sequence (Q9NWZ3 whole entry, species assumed): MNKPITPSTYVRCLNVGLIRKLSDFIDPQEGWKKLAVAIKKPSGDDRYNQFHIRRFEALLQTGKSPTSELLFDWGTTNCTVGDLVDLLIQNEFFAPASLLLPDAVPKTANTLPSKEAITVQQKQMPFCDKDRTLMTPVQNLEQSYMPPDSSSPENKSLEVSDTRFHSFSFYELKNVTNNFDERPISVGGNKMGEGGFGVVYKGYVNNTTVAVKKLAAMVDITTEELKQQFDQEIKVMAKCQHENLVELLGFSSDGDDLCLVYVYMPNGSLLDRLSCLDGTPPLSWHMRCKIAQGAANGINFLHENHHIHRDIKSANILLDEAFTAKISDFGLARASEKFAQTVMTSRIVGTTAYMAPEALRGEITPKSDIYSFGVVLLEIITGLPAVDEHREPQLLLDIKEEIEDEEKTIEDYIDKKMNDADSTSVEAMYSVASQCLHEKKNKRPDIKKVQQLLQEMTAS
Compound,IC50 (IRAK4; IRAK4 Inhibition Assay) [nM],"EC50 [1, 2] [nM]","IC50 [1, 2] [nM]",other results
"CC(C)(O)[C@H](F)CNC(=O)c1cnc(-n2ccc3cc(C#N)cnc32)cc1N[C@H]1CC[C@@](C)(O)CC1 [Example 61, 6-(5-cyano-1H-pyrrolo[2,3-b]pyridin-1-yl)-N—((R)-2-fluoro-3-hydroxy-3-methylbutyl)-4-(((1s,4S)-4-hydroxy-4-methylcyclohexyl)amino)nicotinamide]",1.3,34,,
"CC(C)(O)[C@H](F)CNC(=O)c1cnc(-n2ccc3cc(C(N)=O)cnc32)cc1NC1CCC1 [Example 124, (R)-1-(4-(Cyclobutylamino)-5-((2-fluoro-3-hydroxy-3-methylbutyl)carbamoyl)pyridin-2-yl)-1H-pyrrolo[2,3-b]pyridine-5-carboxamide]",4.8,119,,
"CC(C)(O)[C@H](F)CNC(=O)c1cnc(-n2ccc3cc(C#N)cnc32)cc1NC(CO)CF (stereo partly drawn) [Example 131, 6-(5-Cyano-1H-pyrrolo[2,3-b]pyridin-1-yl)-N—((R)-2-fluoro-3-hydroxy-3-methylbutyl)-4-((1-fluoro-3-hydroxypropan-2-yl)amino)nicotinamide]",6.8,410,,
CC[C@@H](C)Nc1cc(-n2ncc3cc(C#N)c(N)nc32)ncc1C(=O)NC[C@@H](F)C(C)(C)O [Example 300],1.6,,83,
CC(C)Nc1cc(-n2ncc3cc(C#N)c(N)nc32)ncc1C(=O)NC[C@@H](F)C(C)(C)F [Example 295],1.9,,240,
CC(C)Nc1cc(-n2ncc3cc(C#N)c(N)nc32)ncc1C(=O)NC1(C)CC1 [Example 322],6.7,,159,
CC(C)(O)[C@H](F)CNC(=O)c1cnc(-n2ncc3cc(C#N)cnc32)cc1Nc1cnn(CC(F)(F)F)c1 [Example 353],1.7,,18,
CC(C)Nc1cc(-n2ncc3cc(C#N)cnc32)ncc1C(=O)NC[C@@H](F)C(=O)N[C@@H](C)CO [Example 230],13.4,410,459,
Cn1nnnc1-c1ccc(Nc2cc(-n3ncc4cc(C#N)cnc43)ncc2C(=O)NC[C@@H](F)C(C)(C)O)cc1 [Example 527],,,,"IC50 (IRAK4; IRAK4 0.6 nM): 3 nM; EC50 [1, 3]: 228 nM"
CC(C)Nc1cc(-n2ncc3cc(C#N)cnc32)ncc1C(=O)NCC(F)C1(O)COC1 (stereo not shown) [Example 248],3.6,,,"IC50 [1, 4]: 554 nM"
COc1cnc(NC(=O)c2cnc(-n3ncc4cc(C#N)cnc43)cc2NC(C)C)cn1 [Example 564],,,,"IC50 (IRAK4; IRAK4 0.6 nM): 20.1 nM; EC50 [1, 3]: 659 nM"
"CC(C)Nc1cc(-n2ccc3cc(C#N)cnc32)ncc1C(=O)N[C@H]1CC[C@H](C(=O)NC(C)C)CC1 [Example 90, 6-(5-cyano-1H-pyrrolo[2,3-b]pyridin-1-yl)-4-(isopropylamino)-N-((trans)-4-(isopropylcarbamoyl)cyclohexyl) nicotinamide]",1.9,41,,
"CC(C)(O)[C@H](F)CNC(=O)c1cnc(-n2ccc3cc(C#N)cnc32)cc1NCC(F)(F)F [Example 5, (R)-6-(5-cyano-1H-pyrrolo[2,3-b]pyridin-1-yl)-N-(2-fluoro-3-hydroxy-3-methylbutyl)-4-((2,2,2-trifluoroethyl)amino)nicotinamide]",2.3,78,95,
"CC(C)(O)[C@H](F)CNC(=O)c1cnc(-n2ccc3cc(C#N)cnc32)cc1NC1CCOCC1F (single isomer, unassigned) [Example 107]",1.8,,,"EC50 [1, 4]: 57 nM"
C[C@@H](CO)Nc1cc(-n2ncc3cc(C#N)cnc32)ncc1C(=O)NCCC1CC1 [Example 318],7.9,,188,
"CC(C)Nc1cc(-n2ccc3cccnc32)ncc1C(=O)NC[C@@H](F)C(C)(C)O [Example 74, (R)—N-(2-fluoro-3-hydroxy-3-methylbutyl)-4-(isopropylamino)-6-(1H-pyrrolo[2,3-b]pyridin-1-yl)nicotinamide]",4.3,,531,
